Legend:
[1] = cynomolgus monkey, in vivo, sc, 35 mg/kg
[2] = Tolerability in Sprague-Dawley rats, body and organ weights (Example 22); type: in vivo; conditions: male Sprague-Dawley rats, 50 mg/kg s.c. weekly for 6 weeks (7 doses); for Kidney weight / Liver weight / Spleen weight: end of study; for body weight: terminal, prior to necropsy
Procedure: Terminal body weight was measured prior to necropsy. Ionis oligonucleotides that caused any changes in organ weights outside the expected range for modified oligonucleotides were excluded from further studies.

[3] = rat, in vivo, sc, 50 mg/kg
Procedure: Male Sprague-Dawley rats were maintained on a 12-hour light/dark cycle and fed ad libitum with Purina normal rat chow. Groups of 4 Sprague-Dawley rats each were weekly injected subcutaneously with 50 mg/kg of Ionis oligonucleotide for 6 weeks (total 7 doses). Forty-eight hours after the last dose, the rats were euthanized; and organs, urine and plasma were harvested for further analysis.
To evaluate the effect of Ionis oligonucleotides on kidney function, urinary levels of total protein and creatinine were measured using an automated clinical chemistry analyzer (Hitachi Olympus AU400c, Melville, N.Y.).

Yap1 mRNA [4] = experiment: Inhibition of human Yap1 mRNA in epidermoid carcinoma A-431 xenograft tumors (Example 27); type: in vivo; conditions: A-431 xenografts in NCr-Foxn1nu mice, 6-8 hours post final dose, relative to PBS
Procedure: An epidermoid carcinoma A-431 xenograft tumor model was used to evaluate activity of modified oligonucleotides targeted to human Yap1. Five million A-431 cells in 30% matrigel were implanted subcutaneously into the flanks of female NCr-Foxn1nu mice (from Taconic) at 4-6 weeks of age. When tumors reached an average volume of 40 mm^3, approximately two weeks post-implantation, groups of four mice each were administered at either 25 mg/kg or 50 mg/kg daily with modified oligonucleotides for […] (5 doses). Tumors were collected 6-8 hours post final dose and tested for Yap1 mRNA knockdown by RT-qPCR. Yap1 mRNA levels were measured as previously described using the Human Yap1 primer-probe set RTS4814. Yap1 mRNA levels were normalized to actin-beta content, as measured by primer probe set RTS5002. Results are presented in the tables below as percent control of the amount of Yap1 mRNA relative to PBS treated animals (% control).

Yap1 mRNA [5] = experiment: Inhibition of human Yap1 mRNA in squamous cell carcinoma CAL27 xenograft tumors (Example 28); type: in vivo; conditions: CAL27 xenografts in NCr-Foxn1nu mice, relative to PBS treated
Procedure: A squamous cell carcinoma CAL27 xenograft tumor model was used to evaluate activity of modified oligonucleotides targeted to human Yap1. Five million CAL27 cells in 30% matrigel were implanted subcutaneously into the flanks of female CrTac:NCr-Foxn1nu mice (from Taconic) at 4-6 weeks of age. Groups of four mice each were administered with either 15 mg/kg or 30 mg/kg of modified oligonucleotides daily for five days after tumor size had reached ˜100 mm^3 (about 3 weeks post implantation). Tumors were collected and tested for Yap1 mRNA knockdown by RT-qPCR. Yap1 mRNA levels were measured as previously described using the Human Yap1 primer-probe set RTS4814. Yap1 mRNA levels were normalized to actin-beta content, as measured by primer probe set RTS5002. Results are presented in the tables below as percent control of the amount of Yap1 mRNA relative to PBS treated […].

Yap1 mRNA [6] = experiment: Dose-dependent inhibition of human Yap1 in SNU-449 cells (Example 9, RTS36584); type: cell-based; conditions: free uptake; for % UTC (Yap1 mRNA): approximately 48 hours; for IC50: linear regression on a log/linear plot
Procedure, shortened: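 SNU-449 cells (10,000/well) took up modified oligonucleotides by free uptake at a range of doses for about 48 h. Yap1 mRNA was quantified with primer-probe set RTS36584, normalised to RIBOGREEN total RNA and expressed as % untreated control; IC50 from linear regression on log/linear plot.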

[7] = Cynomolgus monkey tolerability, hematology (Example 34); type: in vivo, cynomolgus monkeys; conditions: for BAS / EOS / HCT / HGB / LUC / LYM / MCH / MCHC / MCV / MON / NEU / PLT / RBC / RCDW / Retic / WBC: cynomolgus monkey, in vivo, sc, 35 mg/kg; for MPV: cynomolgus monkeys, 35 mg/kg subcutaneously, day 44
Procedure, shortened: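 On day 44, blood from oligonucleotide-treated cynomolgus monkeys was collected into K2-EDTA. An automated analyzer measured red cell indices, reticulocytes, platelets and MPV, and total and differential white cell counts.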

[8] = Tolerability in Sprague-Dawley rats, plasma chemistry markers (Example 22); type: in vivo; conditions: male Sprague-Dawley rats, 50 mg/kg s.c. weekly for 6 weeks (7 doses), 48 hours after last dose
Procedure: Sprague-Dawley rats are a multipurpose model used for safety and efficacy evaluations. The rats were treated with Ionis modified oligonucleotides from the studies described in the Examples above and evaluated for changes in the levels of various plasma chemistry markers.

SCC25 cells = experiment: Cell proliferation assay in SCC25 cells, CellTiter-Glo (Example 25); type: cell-based, human; conditions: free uptake, 144 hours
Procedure: Modified oligonucleotides described in the studies above were tested at various doses in squamous cell carcinoma cell SCC25. A control oligonucleotide 792169 (a 3-10-3 cET gapmer with a full phosphorothioate backbone, […], designated herein as SEQ ID No.: 2940; is not complementary to any known human gene) was also tested.
Cultured SCC25 cells at a density of 1,000 cells/well were treated using free uptake with modified oligonucleotides diluted to concentrations described in the tables below. After approximately 144 hours, cell proliferation was measured using the luminescent cell viability CellTiter-Glo® 2.0 Assay (Promega). Results are presented in the tables below as percent control of the amount of luminescence in samples treated with modified oligonucleotides relative to untreated control cells (% UTC).

Substance	A/G ratio [1]	Kidney weight [2]	Liver weight [2]	Spleen weight [2]	body weight [2]	URINE P/C ratio (total protein to creatinine ratio) [3]	Yap1 mRNA in tumors, % control (Yap1 mRNA [4]; 25 mpk daily (5 doses))	Yap1 mRNA in tumors, % control (Yap1 mRNA [4]; 50 mpk daily (5 doses))	Yap1 mRNA in tumors, % UTC (Yap1 mRNA [5]; 15 mg/kg daily for five days)	Yap1 mRNA in tumors, % UTC (Yap1 mRNA [5]; 30 mg/kg daily for five days)	% UTC (Yap1 mRNA) (Yap1 mRNA [6]; 31.3 nM)	% UTC (Yap1 mRNA) (Yap1 mRNA [6]; 125.0 nM)	% UTC (Yap1 mRNA) (Yap1 mRNA [6]; 500.0 nM)	% UTC (Yap1 mRNA) (Yap1 mRNA [6]; 2000.00 nM)	IC50 (Yap1 mRNA [6])	BAS [7]	EOS [7]	HCT [7]	HGB [7]	LUC [7]	other results
1198831 (CACTTTTACATTAGGA; chemically modified gapmer, further chemistry not given here) [compound 1198831]	1.4	3.3 g	19 g	2.0 g	426 g	17	47 % control	37 % control	70 % UTC	48 % UTC	74 % UTC	33 % UTC	10 % UTC	4 % UTC	100 nM	0.3%	2.0%	43%	13 g/dL	0.8%	LYM [7]: 50%; MCH [7]: 23 pg; MCHC [7]: 30 g/dL; MCV [7]: 76 fL; MON [7]: 3.3%; NEU [7]: 44%; PLT [7]: 377 10^3/μL; RBC [7]: 5.6e+06 µL⁻¹; RCDW [7]: 12%; Retic [7]: 1.0%; WBC [7]: 7600 µL⁻¹; MPV [7]: 7.3 fL; ALT [8]: 54 U/L; AST [8]: 69 U/L; BUN [8]: 23 mg/dL; TBIL [8]: 0.20 mg/dL; cell proliferation (luminescence) % UTC (SCC25 cells; 0.04 μM): 88 % UTC; cell proliferation (luminescence) % UTC (SCC25 cells; 0.2 μM): 54 % UTC; cell proliferation (luminescence) % UTC (SCC25 cells; 1 μM): 25 % UTC; cell proliferation (luminescence) % UTC (SCC25 cells; 5 μM): 21 % UTC
1198623 (CTAAGTAAGGTTTCCC; modified gapmer, further chemistry not given here) [compound 1198623]	1.4	3.6 g	20 g	1.9 g	472 g	5	43 % control	36 % control	52 % UTC	44 % UTC	48 % UTC	24 % UTC	5 % UTC	1 % UTC	< 30 nM	0.4%	0.8%	46%	14 g/dL	0.7%	LYM [7]: 53%; MCH [7]: 23 pg; MCHC [7]: 30 g/dL; MCV [7]: 78 fL; MON [7]: 2.0%; NEU [7]: 43%; PLT [7]: 376 10^3/μL; RBC [7]: 5.9e+06 µL⁻¹; RCDW [7]: 13%; Retic [7]: 1.0%; WBC [7]: 11700 µL⁻¹; MPV [7]: 7.8 fL; ALT [8]: 96 U/L; AST [8]: 87 U/L; BUN [8]: 21 mg/dL; TBIL [8]: 0.24 mg/dL; cell proliferation (luminescence) % UTC (SCC25 cells; 0.04 μM): 84 % UTC; cell proliferation (luminescence) % UTC (SCC25 cells; 0.2 μM): 55 % UTC; cell proliferation (luminescence) % UTC (SCC25 cells; 1 μM): 36 % UTC; cell proliferation (luminescence) % UTC (SCC25 cells; 5 μM): 29 % UTC
1198872 (TGTATGTCAGAAGAGT; chemically modified gapmer, further chemistry not given here) [compound 1198872]	1.3	3.4 g	17 g	1.3 g	417 g	8	34 % control	26 % control	55 % UTC	38 % UTC	49 % UTC	21 % UTC	6 % UTC	1 % UTC	< 30 nM	0.3%	0.6%	44%	13 g/dL	0.5%	LYM [7]: 32%; MCH [7]: 23 pg; MCHC [7]: 30 g/dL; MCV [7]: 78 fL; MON [7]: 2.2%; NEU [7]: 64%; PLT [7]: 400 10^3/μL; RBC [7]: 5.7e+06 µL⁻¹; RCDW [7]: 12%; Retic [7]: 1.2%; WBC [7]: 10400 µL⁻¹; MPV [7]: 7.1 fL; ALT [8]: 109 U/L; AST [8]: 134 U/L; BUN [8]: 18 mg/dL; TBIL [8]: 0.20 mg/dL; cell proliferation (luminescence) % UTC (SCC25 cells; 0.04 μM): 82 % UTC; cell proliferation (luminescence) % UTC (SCC25 cells; 0.2 μM): 37 % UTC; cell proliferation (luminescence) % UTC (SCC25 cells; 1 μM): 22 % UTC; cell proliferation (luminescence) % UTC (SCC25 cells; 5 μM): 18 % UTC

Reference: patent publication US11214803B2, “Modulators of YAP1 expression” (Ionis Pharmaceuticals, Inc., priority 2019, dated 2022)
